Assays:
LNCap tumor cells = experiment: tissue biodistribution study in LNCap xenograft mice; assay type: in vivo; settings: 177Lu complex; for concentration in kidneys versus LNCap tumor cells: 4 hours post administration; for concentration in LNCap tumor cells versus kidney: 24 hours and 96 hours post administration; for change of concentration in kidney: later time intervals (24 and 96 hours)
Description: FIG. 2 is a graph of the tissue biodistribution of a ^111In analog of the compound of Example 3, in LNCap Xenograft mice.
FIGS. 1A and 1B illustrate results of a bio-distribution study in LNCap xenograft mice of a GUG-DOTA-^177Lu complex (compound (A)) and a GUL-DOTA-^177Lu complex (compound (B)) according to Formula II.
In contrast, the inventive compounds accumulate within tumor cells with only a slight decrease in intratumoral concentration observed after 96 hours.
FIG. 2 illustrates results of a bio-distribution study in LNCap xenograft mice using a GUL-DOTA-^111In complex and a hydrophobic aminohexanoic acid linker. […] The inventors hypothesize that the low biodistribution of MIP-1450 LNCap tumor cells may be due to this compounds low affinity for PSMA expressed on the surface of LNCap cells. As stated above, it was unexpectedly that presence of carboxylic acid groups in the linker region increased affinity of Formula I compounds for PSMA. This increase in binding affinity is due, at least in part to additional cooperative binding interactions of the free carboxylic acid groups with amino acid residues of PSMA. Illustrative of Formula I compound-radionuclide complexes that have one or more carboxylic acid groups as part of the linker group include without limitation the following compounds: […]

PSMA = biological target: T1, PSMA (Homo sapiens, UniProt Q04609); experiment: competitive binding assay against 123I-DCIT in PSMA positive LNCaP cells; settings: Lu complexes; competition with 3 nM 123I DCIT on LNCaP cells, 1 hour at room temperature
T1 construct: host or cells: LNCaP human prostate cancer cells
T1 sequence (Q04609 whole entry): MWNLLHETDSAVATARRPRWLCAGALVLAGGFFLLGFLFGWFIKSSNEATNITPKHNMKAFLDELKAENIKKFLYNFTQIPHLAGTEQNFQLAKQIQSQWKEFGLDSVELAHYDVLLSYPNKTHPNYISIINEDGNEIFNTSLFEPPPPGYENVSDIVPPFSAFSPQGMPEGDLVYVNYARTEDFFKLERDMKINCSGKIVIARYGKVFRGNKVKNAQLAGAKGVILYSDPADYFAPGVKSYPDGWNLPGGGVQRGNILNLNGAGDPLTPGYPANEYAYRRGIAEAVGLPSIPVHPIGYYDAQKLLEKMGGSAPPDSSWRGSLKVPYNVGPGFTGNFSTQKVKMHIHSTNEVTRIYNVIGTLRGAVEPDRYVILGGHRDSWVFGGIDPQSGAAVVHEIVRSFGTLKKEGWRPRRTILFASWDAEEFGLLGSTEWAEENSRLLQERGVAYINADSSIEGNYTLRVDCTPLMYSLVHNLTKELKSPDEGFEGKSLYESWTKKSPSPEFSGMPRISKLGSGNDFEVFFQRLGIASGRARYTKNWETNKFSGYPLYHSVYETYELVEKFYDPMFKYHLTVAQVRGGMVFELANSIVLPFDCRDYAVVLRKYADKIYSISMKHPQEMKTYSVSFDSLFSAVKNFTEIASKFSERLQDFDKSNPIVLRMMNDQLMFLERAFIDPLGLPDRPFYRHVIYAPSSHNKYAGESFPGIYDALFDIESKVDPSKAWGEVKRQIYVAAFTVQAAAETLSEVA
Description: The compounds of Formula I or Formula II were screened in a human prostate cancer cell binding assay using PSMA positive (+), LnCap cells.
Briefly, LNCaP and PC3 human prostate cancer cells were obtained from American Type Culture Collection, Rockville, Md. LNCaP cells were maintained in RPMI-1640 medium supplemented with 10% fetal bovine serum (FBS). Binding of the radiolabeled compound and competition with cold derivatives to LNCaP cells was performed according to published methods. Cells were plated in 12-well plates at approximately 4×10^5 cells/well and incubated for 48 hours in a humidified incubator at 37° C./5% carbon dioxide prior to addition of compound. Solutions of the Formula I or Formula II compounds were prepared and diluted in serum-free cell culture medium containing 0.5% bovine serum albumin (BSA) in combination with 3 nM ^123I DCIT (known inhibitor). Total binding was determined by incubating ^123I-DCIT without test compound. Plates were incubated at room temperature for 1 hour. Cells were removed from the plates and transferred to eppendorff tubes. Samples were microcentrifuged for 15 seconds at 10K×g. The medium was aspirated and the pellet was washed twice by dispersal in fresh assay medium followed by microcentrifugation. Cell binding of ^123I DCIT was determined by counting the cell pellet in an automated gamma counter. Nonspecific binding was determined as the counts associated with the cells after incubating with 2 uM nonradiolabeled compound or 2-phosphonomethyl-pentanedioic acid (PMPA). Table 3 illustrates the IC50 values of representative Formula II complexes.

Row | IC50 (PSMA) | Compound | other results
1 | – | O=C(O)CC[C@H](NC(=O)N[C@@H](CCCCNC(=O)[C@H](Cc1ccc2ccccc2c1)NC(=O)CCCCCNC(=S)Nc1ccc(CC2CN(CC(=O)O)CCN(CC(=O)O)CCN(CC(=O)O)CCN2CC(=O)O)cc1)C(=O)O)C(=O)O.[177Lu] (stereo partly drawn) [B, ^177Lu-complex of (10S,17S,21S)-10-(naphthalen-2-ylmethyl)-8,11,19-trioxo-1-((4-((1,4,7,10-tetrakis(carboxymethyl)-1,4,7,10-tetraazacyclododecan-2-yl)methyl)phenyl)amino)-1-thioxo-2,9,12,18,20-pentaazatricosane-17,21,23-tricarboxylic acid] | concentration in kidneys versus LNCap tumor cells (LNCap tumor cells): concentrate to a greater extent in the kidneys than LNCap tumor cells; concentration in LNCap tumor cells versus kidney (LNCap tumor cells): the concentration is greater in LNCap tumor cells than kidney; change of concentration in kidney (LNCap tumor cells): significant reduction
2 | 28 nM | (3S,7S,14S,17S)-14-benzyl-5,13,16-trioxo-17-(6-(3-(4-((S)-1,4,7,10-tetrakis(carboxymethyl)-1,4,7,10-tetraazacyclododecan-2-yl)methyl)phenyl)thioureido)hexanamido)-4,6,12,15-tetraazanonadecane-1,3,7,19-tetracarboxylate Lu complex [Lu-MIP-1531] | –
3 | 22 nM | (10S,13S,20S,24S)-13-(2-carboxyethyl)-10-(4-fluorobenzyl)-8,11,14,22-tetraoxo-1-((4-((1,4,7,10-tetrakis(carboxymethyl)-1,4,7,10-tetraazacyclododecan-2-yl)methyl)phenyl)amino)-1-thioxo-2,9,12,15,21,23-hexaazahexacosane-20,24,26-tricarboxylate Lu complex [Lu-MIP-1550] | –
4 | 54 nM | (10S,17S,21S)-10-(2-carboxyethyl)-8,11,19-trioxo-1-((4-((1,4,7,10-tetrakis(carboxymethyl)-1,4,7,10-tetraazacyclododecan-2-yl)methyl)phenyl)amino)-1-thioxo-2,9,12,18,20-pentaazatricosane-17,21,23-tricarboxylate Lu complex [Lu-MIP-1523] | –
5 | 15 nM | (10S,17S,21S)-10-(4-fluorobenzyl)-8,11,19-trioxo-1-((4-((1,4,7,10-tetrakis(carboxymethyl)-1,4,7,10-tetraazacyclododecan-2-yl)methyl)phenyl)amino)-1-thioxo-2,9,12,18,20-pentaazatricosane-17,21,23-tricarboxylate Lu complex [Lu-MIP-1546] | –
6 | 10 nM | (10S,17S,21S)-10-(naphthalen-2-ylmethyl)-8,11,19-trioxo-1-((4-((1,4,7,10-tetrakis(carboxymethyl)-1,4,7,10-tetraazacyclododecan-2-yl)methyl)phenyl)amino)-1-thioxo-2,9,12,18,20-pentaazatricosane-17,21,23-tricarboxylate Lu complex [Lu-MIP-1545] | –
7 | 21 nM | (10S,17S,21S)-10-benzyl-8,11,19-trioxo-1-((4-((1,4,7,10-tetrakis(carboxymethyl)-1,4,7,10-tetraazacyclododecan-2-yl)methyl)phenyl)amino)-1-thioxo-2,9,12,18,20-pentaazatricosane-17,21,23-tricarboxylate-Lu complex [Lu-MIP-1530] | –
8 | 12 nM | (11S,16S,20S)-11-(2-carboxyethyl)-10,13,18-trioxo-1-((4-((1,4,7,10-tetrakis(carboxymethyl)-1,4,7,10-tetraazacyclododecan-2-yl)methyl)phenyl)amino)-1-thioxo-2,9,12,17,19-pentaazadocosane-16,20,22-tricarboxylate Lu complex [Lu-MIP-1519] | –
9 | 77 nM | (11S,16S,20S)-11-benzyl-10,13,18-trioxo-1-((4-((1,4,7,10-tetrakis(carboxymethyl)-1,4,7,10-tetraazacyclododecan-2-yl)methyl)phenyl)amino)-1-thioxo-2,9,12,17,19-pentaazadocosane-16,20,22-tricarboxylate Lu complex [Lu-MIP-1548] | –
10 | 78 nM | (13S,17S)-10,15-dioxo-1-((4-((1,4,7,10-tetrakis(carboxymethyl)-1,4,7,10-tetraazacyclododecan-2-yl)methyl)phenyl)amino)-1-thioxo-2,9,14,16-tetraazanonadecane-13,17,19-tricarboxylate Lu complex [Lu-MIP-1526] | –
11 | 23 nM | (16S,20S)-10,18-dioxo-1-((4-((1,4,7,10-tetrakis(carboxymethyl)-1,4,7,10-tetraazacyclododecan-2-yl)methyl)phenyl)amino)-1-thioxo-2,11,17,19-tetraazadocosane-16,20,22-tricarboxylate Lu complex [Lu-MIP-1512] | –
12 | – | ^177Lu-complex of (11S,16S,20S)-11-(2-carboxyethyl)-10,13,18-trioxo-1-((4-((1,4,7,10-tetrakis(carboxymethyl)-1,4,7,10-tetraazacyclododecan-2-yl)methyl)phenyl)amino)-1-thioxo-2,9,12,17,19-pentaazadocosane-16,20,22-tricarboxylate | concentration in kidneys versus LNCap tumor cells (LNCap tumor cells): concentrate to a greater extent in the kidneys than LNCap tumor cells; concentration in LNCap tumor cells versus kidney (LNCap tumor cells): the concentration is greater in LNCap tumor cells than kidney; change of concentration in kidney (LNCap tumor cells): significant reduction
